Bounds are passed on as bounds.

The record followed here is patent publication US20110071108A1, “Beta-Cyclodextrin Derivatives as Antibacterial Agents” (Pinnacle Pharmaceuticals, Inc., priority 2005, published 2011).

One series relates to Lungs cancer cells A549. Put plainly: Mammalian cytotoxicity.
The test system of another series is Eschericia coli. The experiment in a line: Bacterial panel testing, MIC by broth microdilution. As to conditions: 20-24 hours growth. The format is cell-based. The procedure, abridged: (§1)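 Read-out: clear (no-growth) wells scored after 20-24 h growth to define compound potency. Inoculum was McFarland-matched bacteria from 2-4 h cultures at 37° C in strain-appropriate Mueller-Hinton or Brain Heart infusion media. Compound (10 μg/ml DMSO stock) was serially diluted twofold across plate columns.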
A general note: Dilution methods test growth across graded concentrations, often in twofold steps.

In a further series the test system is Salmonella choleraesuis. Described as above. The format is cell-based. The conditions noted are these: 20-24 hours growth. The procedure, abridged: as §1
For the next series, the system named is Enterococcus faecium. The series is described as above. The format is cell-based. The conditions noted are these: 20-24 hours growth. The procedure, abridged: as §1
A further series has as its system Pseudomonas aeruginosa. The description is as above. The format is cell-based. As to conditions: 20-24 hours growth. The procedure, abridged: as §1
Another series concerns Staphylococcus aureus. Described as above. The format is cell-based. The conditions noted are these: 20-24 hours growth. The procedure, abridged:
as §1

`NCC(=O)NC[C@H]1O[C@@H]2O[C@H]3[C@H](O)[C@@H](O)[C@@H](O[C@H]4[C@H](O)[C@@H](O)[C@@H](O[C@H]5[C@H](O)[C@@H](O)[C@@H](O[C@H]6[C@H](O)[C@@H](O)[C@@H](O[C@H]7[C@H](O)[C@@H](O)[C@@H](O[C@H]8[C@H](O)[C@@H](O)[C@@H](O[C@H]1[C@H](O)[C@H]2O)O[C@@H]8CNC(=O)CN)O[C@@H]7CNC(=O)CN)O[C@@H]6CNC(=O)CN)O[C@@H]5CNC(=O)CN)O[C@@H]4CNC(=O)CN)O[C@@H]3CNC(=O)CN`: in the series on Lungs cancer cells A549, the “Mammalian Cytotoxicity IC50” value was 690 µg/mL. Also, the “MIC EC” value in the series on Eschericia coli was more than 200 µg/mL. Besides, the “MIC SC” value in the series with Salmonella choleraesuis was more than 200 µg/mL. Moreover, in the series on Enterococcus faecium, the “MIC EF” value is more than 200 µg/mL. The “MIC PA” value with Pseudomonas aeruginosa is more than 200 µg/mL. Further, in the series with Staphylococcus aureus, the “MIC SA” value is more than 200 µg/mL.

On to `OC1C2OC(CNc3nc4ccccc4s3)C(OC3OC(CNc4nc5ccccc5s4)C(OC4OC(CNc5nc6ccccc6s5)C(OC5OC(CNc6nc7ccccc7s6)C(OC6OC(CNc7nc8ccccc8s7)C(OC7OC(CNc8nc9ccccc9s8)C(OC8OC(CNc9nc%10ccccc%10s9)C(O2)C(O)C8O)C(O)C7O)C(O)C6O)C(O)C5O)C(O)C4O)C(O)C3O)C1O` (stereo not shown), for which, in the series on Lungs cancer cells A549, the “Mammalian Cytotoxicity IC50” value worked out at 317 µg/mL. In addition, in the series with Eschericia coli, the “MIC EC” value is more than 200 µg/mL. For the same molecule, the “MIC SC” value against Salmonella choleraesuis is more than 200 µg/mL. In addition, the “MIC PA” value against Pseudomonas aeruginosa was more than 200 µg/mL.

As for `NC[C@H]1O[C@@H]2O[C@H]3[C@H](O)[C@@H](O)[C@@H](O[C@H]4[C@H](O)[C@@H](O)[C@@H](O[C@H]5[C@H](O)[C@@H](O)[C@@H](O[C@H]6[C@H](O)[C@@H](O)[C@@H](O[C@H]7[C@H](O)[C@@H](O)[C@@H](O[C@H]8[C@H](O)[C@@H](O)[C@@H](O[C@H]1[C@H](O)[C@H]2O)O[C@@H]8CN)O[C@@H]7CN)O[C@@H]6CN)O[C@@H]5CN)O[C@@H]4CN)O[C@@H]3CN`, the “Mammalian Cytotoxicity IC50” value in the series with Lungs cancer cells A549 came out at 720 µg/mL. The “MIC SC” value against Salmonella choleraesuis was more than 200 µg/mL. The “MIC EF” value against Enterococcus faecium is more than 200 µg/mL. The “MIC SA” value in the series with Staphylococcus aureus was more than 200 µg/mL.

For the molecule `COc1ccc(CNCC2OC3OC4C(CNCc5ccc(OC)cc5)OC(OC5C(CNCc6ccc(OC)cc6)OC(OC6C(CNCc7ccc(OC)cc7)OC(OC7C(CNCc8ccc(OC)cc8)OC(OC8C(CNCc9ccc(OC)cc9)OC(OC9C(CNCc%10ccc(OC)cc%10)OC(OC2C(O)C3O)C(O)C9O)C(O)C8O)C(O)C7O)C(O)C6O)C(O)C5O)C(O)C4O)cc1` (stereo not shown), in the series with Lungs cancer cells A549, the “Mammalian Cytotoxicity IC50” value worked out at 297 µg/mL. In the series on Salmonella choleraesuis, the “MIC SC” value was more than 200 µg/mL. Further, the “MIC PA” value against Pseudomonas aeruginosa was more than 200 µg/mL.

Turning to `O[C@@H]1[C@@H](O)[C@H]2O[C@H]3[C@H](O)[C@@H](O)[C@@H](O[C@H]4[C@H](O)[C@@H](O)[C@@H](O[C@H]5[C@H](O)[C@@H](O)[C@@H](O[C@H]6[C@H](O)[C@@H](O)[C@@H](O[C@H]7[C@H](O)[C@@H](O)[C@@H](O[C@H]8[C@H](O)[C@@H](O)[C@@H](O[C@@H]1[C@@H](CNc1ncccc1OCc1ccccc1)O2)O[C@@H]8CNc1ncccc1OCc1ccccc1)O[C@@H]7CNc1ncccc1OCc1ccccc1)O[C@@H]6CNc1ncccc1OCc1ccccc1)O[C@@H]5CNc1ncccc1OCc1ccccc1)O[C@@H]4CNc1ncccc1OCc1ccccc1)O[C@@H]3CNc1ncccc1OCc1ccccc1`, the “Mammalian Cytotoxicity IC50” value with Lungs cancer cells A549 amounted to 398 µg/mL. For the same molecule, in the series on Eschericia coli, the “MIC EC” value was more than 200 µg/mL. Moreover, in the series on Salmonella choleraesuis, the “MIC SC” value is more than 200 µg/mL. In addition, in the series with Pseudomonas aeruginosa, the “MIC PA” value is more than 200 µg/mL.

As for `[N-]=[N+]=NC[C@H]1O[C@@H]2O[C@H]3[C@H](O)[C@@H](O)[C@@H](O[C@H]4[C@H](O)[C@@H](O)[C@@H](O[C@H]5[C@H](O)[C@@H](O)[C@@H](O[C@H]6[C@H](O)[C@@H](O)[C@@H](O[C@H]7[C@H](O)[C@@H](O)[C@@H](O[C@H]8[C@H](O)[C@@H](O)[C@@H](O[C@H]1[C@H](O)[C@H]2O)O[C@@H]8CN=[N+]=[N-])O[C@@H]7CN=[N+]=[N-])O[C@@H]6CN=[N+]=[N-])O[C@@H]5CN=[N+]=[N-])O[C@@H]4CN=[N+]=[N-])O[C@@H]3CN=[N+]=[N-]`, the “Mammalian Cytotoxicity IC50” value in the series with Lungs cancer cells A549 was determined as 2116 µg/mL. In the series on Eschericia coli, the “MIC EC” value was more than 200 µg/mL. Also, the “MIC SC” value in the series with Salmonella choleraesuis was more than 200 µg/mL. Further, in the series on Enterococcus faecium, the “MIC EF” value is more than 200 µg/mL. For the same molecule, the “MIC PA” value against Pseudomonas aeruginosa is more than 200 µg/mL.

For `C[C@@H](NCC1OC2OC3C(CN[C@H](C)c4ccccc4)OC(OC4C(CN[C@H](C)c5ccccc5)OC(OC5C(CN[C@H](C)c6ccccc6)OC(OC6C(CN[C@H](C)c7ccccc7)OC(OC7C(CN[C@H](C)c8ccccc8)OC(OC8C(CN[C@H](C)c9ccccc9)OC(OC1C(O)C2O)C(O)C8O)C(O)C7O)C(O)C6O)C(O)C5O)C(O)C4O)C(O)C3O)c1ccccc1` (stereo partly shown), the “Mammalian Cytotoxicity IC50” value in the series with Lungs cancer cells A549 was 105 µg/mL. For the same molecule, the “MIC PA” value against Pseudomonas aeruginosa was more than 200 µg/mL.

Consider `Cc1ccc(CNCC2OC3OC4C(CNCc5ccc(C)cc5)OC(OC5C(CNCc6ccc(C)cc6)OC(OC6C(CNCc7ccc(C)cc7)OC(OC7C(CNCc8ccc(C)cc8)OC(OC8C(CNCc9ccc(C)cc9)OC(OC9C(CNCc%10ccc(C)cc%10)OC(OC2C(O)C3O)C(O)C9O)C(O)C8O)C(O)C7O)C(O)C6O)C(O)C5O)C(O)C4O)cc1` (stereo not shown), for which the “Mammalian Cytotoxicity IC50” value with Lungs cancer cells A549 was 376 µg/mL. For the same molecule, in the series on Salmonella choleraesuis, the “MIC SC” value was more than 200 µg/mL. Also, in the series with Pseudomonas aeruginosa, the “MIC PA” value was more than 200 µg/mL.

Turning to `Cl.Cl.Cl.Cl.Cl.Cl.Cl.NCc1cccc(CSCC2OC3OC4C(CSCc5cccc(CN)c5)OC(OC5C(CSCc6cccc(CN)c6)OC(OC6C(CSCc7cccc(CN)c7)OC(OC7C(CSCc8cccc(CN)c8)OC(OC8C(CSCc9cccc(CN)c9)OC(OC9C(CSCc%10cccc(CN)c%10)OC(OC2C(O)C3O)C(O)C9O)C(O)C8O)C(O)C7O)C(O)C6O)C(O)C5O)C(O)C4O)c1` (stereo not shown), the “Mammalian Cytotoxicity IC50” value in the series with Lungs cancer cells A549 was determined as 54.3 µg/mL. For the same molecule, in the series with Salmonella choleraesuis, the “MIC SC” value was more than 200 µg/mL. Besides, the “MIC EF” value with Enterococcus faecium was more than 200 µg/mL.

Regarding `OC1C2OC(CNC3CCNCC3)C(OC3OC(CNC4CCNCC4)C(OC4OC(CNC5CCNCC5)C(OC5OC(CNC6CCNCC6)C(OC6OC(CNC7CCNCC7)C(OC7OC(CNC8CCNCC8)C(OC8OC(CNC9CCNCC9)C(O2)C(O)C8O)C(O)C7O)C(O)C6O)C(O)C5O)C(O)C4O)C(O)C3O)C1O` (stereo not shown), the “Mammalian Cytotoxicity IC50” value with Lungs cancer cells A549 turned out to be 378 µg/mL. The “MIC SC” value in the series with Salmonella choleraesuis is more than 200 µg/mL. In the series on Pseudomonas aeruginosa, the “MIC PA” value is more than 200 µg/mL.

As for `O[C@@H]1[C@@H](O)[C@H]2O[C@H]3[C@H](O)[C@@H](O)[C@@H](O[C@H]4[C@H](O)[C@@H](O)[C@@H](O[C@H]5[C@H](O)[C@@H](O)[C@@H](O[C@H]6[C@H](O)[C@@H](O)[C@@H](O[C@H]7[C@H](O)[C@@H](O)[C@@H](O[C@H]8[C@H](O)[C@@H](O)[C@@H](O[C@@H]1[C@@H](CNCc1ccccc1)O2)O[C@@H]8CNCc1ccccc1)O[C@@H]7CNCc1ccccc1)O[C@@H]6CNCc1ccccc1)O[C@@H]5CNCc1ccccc1)O[C@@H]4CNCc1ccccc1)O[C@@H]3CNCc1ccccc1`, the “Mammalian Cytotoxicity IC50” value in the series on Lungs cancer cells A549 was found to be 840 µg/mL. In the series with Pseudomonas aeruginosa, the “MIC PA” value was more than 200 µg/mL.

As for `Cl.Cl.Cl.Cl.Cl.Cl.Cl.NCc1ccc(CSCC2OC3OC4C(CSCc5ccc(CN)cc5)OC(OC5C(CSCc6ccc(CN)cc6)OC(OC6C(CSCc7ccc(CN)cc7)OC(OC7C(CSCc8ccc(CN)cc8)OC(OC8C(CSCc9ccc(CN)cc9)OC(OC9C(CSCc%10ccc(CN)cc%10)OC(OC2C(O)C3O)C(O)C9O)C(O)C8O)C(O)C7O)C(O)C6O)C(O)C5O)C(O)C4O)cc1` (stereo not shown), in the series with Lungs cancer cells A549, the “Mammalian Cytotoxicity IC50” value was determined as 56.2 µg/mL. Further, in the series on Enterococcus faecium, the “MIC EF” value was more than 200 µg/mL. Moreover, the “MIC SA” value in the series with Staphylococcus aureus is more than 200 µg/mL.

For `NCCCCCC(=O)NC[C@H]1O[C@@H]2O[C@H]3[C@H](O)[C@@H](O)[C@@H](O[C@H]4[C@H](O)[C@@H](O)[C@@H](O[C@H]5[C@H](O)[C@@H](O)[C@@H](O[C@H]6[C@H](O)[C@@H](O)[C@@H](O[C@H]7[C@H](O)[C@@H](O)[C@@H](O[C@H]8[C@H](O)[C@@H](O)[C@@H](O[C@H]1[C@H](O)[C@H]2O)O[C@@H]8CNC(=O)CCCCCN)O[C@@H]7CNC(=O)CCCCCN)O[C@@H]6CNC(=O)CCCCCN)O[C@@H]5CNC(=O)CCCCCN)O[C@@H]4CNC(=O)CCCCCN)O[C@@H]3CNC(=O)CCCCCN`, the “Mammalian Cytotoxicity IC50” value with Lungs cancer cells A549 came to 780 µg/mL. Moreover, in the series on Eschericia coli, the “MIC EC” value was more than 200 µg/mL. The “MIC SC” value with Salmonella choleraesuis was more than 200 µg/mL. Moreover, in the series with Enterococcus faecium, the “MIC EF” value was more than 200 µg/mL. Besides, the “MIC PA” value in the series with Pseudomonas aeruginosa is more than 200 µg/mL.

Regarding `OC1C2OC(CNC3CCCCC3)C(OC3OC(CNC4CCCCC4)C(OC4OC(CNC5CCCCC5)C(OC5OC(CNC6CCCCC6)C(OC6OC(CNC7CCCCC7)C(OC7OC(CNC8CCCCC8)C(OC8OC(CNC9CCCCC9)C(O2)C(O)C8O)C(O)C7O)C(O)C6O)C(O)C5O)C(O)C4O)C(O)C3O)C1O` (stereo not shown), in the series on Lungs cancer cells A549, the “Mammalian Cytotoxicity IC50” value stood at 373 µg/mL. In addition, in the series with Salmonella choleraesuis, the “MIC SC” value was more than 200 µg/mL. In the series on Pseudomonas aeruginosa, the “MIC PA” value was more than 200 µg/mL.

Take `CCCCCCNC[C@H]1O[C@@H]2O[C@H]3[C@H](O)[C@@H](O)[C@@H](O[C@H]4[C@H](O)[C@@H](O)[C@@H](O[C@H]5[C@H](O)[C@@H](O)[C@@H](O[C@H]6[C@H](O)[C@@H](O)[C@@H](O[C@H]7[C@H](O)[C@@H](O)[C@@H](O[C@H]8[C@H](O)[C@@H](O)[C@@H](O[C@H]1[C@H](O)[C@H]2O)O[C@@H]8CNCCCCCC)O[C@@H]7CNCCCCCC)O[C@@H]6CNCCCCCC)O[C@@H]5CNCCCCCC)O[C@@H]4CNCCCCCC)O[C@@H]3CNCCCCCC`: in the series on Lungs cancer cells A549, the “Mammalian Cytotoxicity IC50” value turned out to be 129 µg/mL. Moreover, the “MIC PA” value in the series on Pseudomonas aeruginosa is more than 200 µg/mL.
